Measured values from ChEMBL document CHEMBL4304811, “Development of a Water-Soluble Indolylmaleimide Derivative IM-93 Showing Dual Inhibition of Ferroptosis and NETosis” (ACS Med Chem Lett, 2019).

Key:
[1] = target: MAP/microtubule affinity-regulating kinase 4 (Homo sapiens) (UniProt Q96L34); experiment: Binding affinity to wild-type human partial length MARK4 (K29 to G340 residues) expressed in bacterial expression system assessed as residual binding level at 10 uM by Kinomescan method relative to control
[2] = target: Myotonin-protein kinase (Homo sapiens) (UniProt Q09013); experiment: Binding affinity to wild-type human partial length DMPK (V47 to V415 residues) expressed in bacterial expression system assessed as residual binding level at 10 uM by Kinomescan method relative to control
[3] = target: cAMP-dependent protein kinase catalytic subunit PRKX (Homo sapiens) (UniProt P51817); experiment: Binding affinity to wild-type human partial length PRKX (M1 to F358 residues) expressed in bacterial expression system assessed as residual binding level at 10 uM by Kinomescan method relative to control
[4] = target: Cyclin-dependent kinase 5 (Homo sapiens) (UniProt Q00535); experiment: Binding affinity to wild-type human full length CDK5 (M1 to P292 residues) expressed in bacterial expression system assessed as residual binding level at 10 uM by Kinomescan method relative to control
[5] = target: Serine/threonine-protein kinase TNNI3K (Homo sapiens) (UniProt Q59H18); experiment: Binding affinity to wild-type human full length TNNI3K (M1 to S835 residues) expressed in bacterial expression system assessed as residual binding level at 10 uM by Kinomescan method relative to control
[6] = tested on: Epidermal growth factor receptor (Homo sapiens), P00533 [UNDEFINED MUTATION]; experiment: Binding affinity to human partial length EGFR L747-T751del/Sins mutant expressed in bacterial expression system assessed as residual binding level at 10 uM by Kinomescan method relative to control
[7] = target: Ephrin type-A receptor 7 (Homo sapiens) (UniProt Q15375); experiment: Binding affinity to wild-type human partial length EPHA7 (Y608 to S912 residues) expressed in bacterial expression system assessed as residual binding level at 10 uM by Kinomescan method relative to control
[8] = target: MAP kinase-interacting serine/threonine-protein kinase 1 (Homo sapiens) (UniProt Q9BUB5); experiment: Binding affinity to wild-type human full length MKNK1 (M1 to L424 residues) expressed in mammalian expression system assessed as residual binding level at 10 uM by Kinomescan method relative to control
[9] = target: Citron Rho-interacting kinase (Homo sapiens) (UniProt O14578); experiment: Binding affinity to wild-type human partial length CIT (M68 to E432 residues) expressed in bacterial expression system assessed as residual binding level at 10 uM by Kinomescan method relative to control
[10] = target: Receptor tyrosine-protein kinase erbB-2 (Homo sapiens) (UniProt P04626); experiment: Binding affinity to wild-type human partial length ERBB2 (K646 to V1225 residues) expressed in mammalian expression system assessed as residual binding level at 10 uM by Kinomescan method relative to control
[11] = target: MAP kinase-interacting serine/threonine-protein kinase 2 (Homo sapiens) (UniProt Q9HBH9); experiment: Binding affinity to wild-type human partial length MKNK2 (G63 to S388 residues) expressed in mammalian expression system assessed as residual binding level at 10 uM by Kinomescan method relative to control
[12] = target: Myosin-IIIb (Homo sapiens) (UniProt Q8WXR4); experiment: Binding affinity to wild-type human partial length MYO3B (M1 to D357 residues) expressed in bacterial expression system assessed as residual binding level at 10 uM by Kinomescan method relative to control
[13] = target: Hepatocyte growth factor receptor (Homo sapiens) (UniProt P08581); experiment: Binding affinity to wild-type human partial length MET (D1010 to S1367 residues) expressed in bacterial expression system assessed as residual binding level at 10 uM by Kinomescan method relative to control
[14] = target: Serine/threonine-protein kinase B-raf (Homo sapiens) (UniProt P15056); experiment: Binding affinity to wild-type human partial length BRAF (S429 to E741 residues) expressed in mammalian expression system assessed as residual binding level at 10 uM by Kinomescan method relative to control
[15] = target: Cyclin-dependent kinase 7 (Homo sapiens) (UniProt P50613); experiment: Binding affinity to wild-type human full length CDK7 (M1 to L344 residues) expressed in mammalian expression system assessed as residual binding level at 10 uM by Kinomescan method relative to control
[16] = target: Insulin receptor-related protein (Homo sapiens) (UniProt P14616); experiment: Binding affinity to wild-type human partial length INSRR (R950 to E1278 residues) expressed in bacterial expression system assessed as residual binding level at 10 uM by Kinomescan method relative to control
[17] = target: Serine/threonine-protein kinase Chk2 (Homo sapiens) (UniProt O96017); experiment: Binding affinity to wild-type human partial length CHEK2 (S253 to E574 residues) expressed in bacterial expression system assessed as residual binding level at 10 uM by Kinomescan method relative to control
[18] = target: cAMP-dependent protein kinase catalytic subunit alpha (Homo sapiens) (UniProt P17612); experiment: Binding affinity to wild-type human partial length PKAC-alpha (G10 to F351 residues) expressed in bacterial expression system assessed as residual binding level at 10 uM by Kinomescan method relative to control
[19] = target: AP2-associated protein kinase 1 (Homo sapiens) (UniProt Q2M2I8); experiment: Binding affinity to wild-type human partial length AAK1 (G25 to L333 residues) expressed in bacterial expression system assessed as residual binding level at 10 uM by Kinomescan method relative to control
[20] = target: Protein kinase C delta type (Homo sapiens) (UniProt Q05655); experiment: Binding affinity to wild-type human partial length PRKCD (Q328 to D676 residues) expressed in bacterial expression system assessed as residual binding level at 10 uM by Kinomescan method relative to control
[21] = tested on: Epidermal growth factor receptor (Homo sapiens), P00533 [G719S]; experiment: Binding affinity to human partial length EGFR G719S mutant (R669 to V1011 residues) expressed in bacterial expression system assessed as residual binding level at 10 uM by Kinomescan method relative to control
[22] = target: Serine/threonine-protein kinase SIK1 (Homo sapiens) (UniProt P57059); experiment: Binding affinity to wild-type human partial length SIK (M1 to Y304 residues) expressed in bacterial expression system assessed as residual binding level at 10 uM by Kinomescan method relative to control
[23] = target: Phosphorylase b kinase gamma catalytic chain, skeletal muscle/heart isoform (Homo sapiens) (UniProt Q16816); experiment: Binding affinity to wild-type human full length PHKG1 (M1 to Y387 residues) expressed in bacterial expression system assessed as residual binding level at 10 uM by Kinomescan method relative to control
[24] = target: Tyrosine-protein kinase JAK2 (Homo sapiens) (UniProt O60674); experiment: Binding affinity to wild-type human partial length JAK2 JH1 catalytic domain (A829 to G1132 residues) expressed in mammalian expression system assessed as residual binding level at 10 uM by Kinomescan method relative to control

Sequence of Protein kinase C delta type (Homo sapiens) (Q05655 whole entry, looked up, the tested form may be a part): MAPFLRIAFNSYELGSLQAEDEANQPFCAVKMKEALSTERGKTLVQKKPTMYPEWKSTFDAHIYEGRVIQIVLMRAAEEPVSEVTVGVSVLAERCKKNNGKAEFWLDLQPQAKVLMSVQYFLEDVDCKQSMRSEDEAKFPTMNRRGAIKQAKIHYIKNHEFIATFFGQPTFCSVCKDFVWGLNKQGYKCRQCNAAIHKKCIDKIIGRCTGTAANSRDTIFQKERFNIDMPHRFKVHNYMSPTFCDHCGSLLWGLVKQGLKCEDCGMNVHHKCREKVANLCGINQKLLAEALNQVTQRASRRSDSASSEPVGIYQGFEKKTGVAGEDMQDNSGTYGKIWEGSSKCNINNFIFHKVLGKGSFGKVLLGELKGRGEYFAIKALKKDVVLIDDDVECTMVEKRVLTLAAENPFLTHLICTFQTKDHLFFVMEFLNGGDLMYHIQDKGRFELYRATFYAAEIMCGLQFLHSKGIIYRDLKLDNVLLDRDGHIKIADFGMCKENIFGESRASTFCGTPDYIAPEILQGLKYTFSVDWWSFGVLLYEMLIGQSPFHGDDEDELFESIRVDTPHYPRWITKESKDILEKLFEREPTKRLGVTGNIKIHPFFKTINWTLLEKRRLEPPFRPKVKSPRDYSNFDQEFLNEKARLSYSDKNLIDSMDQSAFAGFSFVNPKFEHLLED
Sequence of Cyclin-dependent kinase 7 (Homo sapiens) (P50613 whole entry, the tested form may be a part): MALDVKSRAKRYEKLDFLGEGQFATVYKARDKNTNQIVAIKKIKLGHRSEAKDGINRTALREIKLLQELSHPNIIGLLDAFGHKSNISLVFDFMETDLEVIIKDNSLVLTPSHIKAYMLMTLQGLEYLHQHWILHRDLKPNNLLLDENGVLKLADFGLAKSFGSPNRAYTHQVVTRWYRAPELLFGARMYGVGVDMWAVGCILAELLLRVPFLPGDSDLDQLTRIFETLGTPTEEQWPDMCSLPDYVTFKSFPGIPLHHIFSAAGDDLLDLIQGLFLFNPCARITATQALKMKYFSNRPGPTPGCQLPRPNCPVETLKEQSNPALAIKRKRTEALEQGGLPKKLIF
Sequence of MAP kinase-interacting serine/threonine-protein kinase 2 (Homo sapiens) (Q9HBH9 whole entry, looked up, the tested form may be a part): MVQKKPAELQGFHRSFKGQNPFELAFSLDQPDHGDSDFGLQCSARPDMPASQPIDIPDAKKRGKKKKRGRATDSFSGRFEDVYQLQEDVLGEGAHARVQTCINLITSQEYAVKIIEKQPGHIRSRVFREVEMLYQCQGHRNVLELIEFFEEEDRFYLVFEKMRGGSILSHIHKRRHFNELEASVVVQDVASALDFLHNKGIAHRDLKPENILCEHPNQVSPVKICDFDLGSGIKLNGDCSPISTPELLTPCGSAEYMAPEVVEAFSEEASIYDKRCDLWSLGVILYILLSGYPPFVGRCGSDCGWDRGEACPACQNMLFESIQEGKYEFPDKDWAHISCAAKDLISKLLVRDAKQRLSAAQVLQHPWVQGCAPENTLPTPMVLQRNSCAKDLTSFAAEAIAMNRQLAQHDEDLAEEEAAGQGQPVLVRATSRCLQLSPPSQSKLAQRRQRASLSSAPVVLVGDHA
Sequence of Serine/threonine-protein kinase SIK1 (Homo sapiens) (P57059 whole entry, the tested form may be a part, canonical isoform): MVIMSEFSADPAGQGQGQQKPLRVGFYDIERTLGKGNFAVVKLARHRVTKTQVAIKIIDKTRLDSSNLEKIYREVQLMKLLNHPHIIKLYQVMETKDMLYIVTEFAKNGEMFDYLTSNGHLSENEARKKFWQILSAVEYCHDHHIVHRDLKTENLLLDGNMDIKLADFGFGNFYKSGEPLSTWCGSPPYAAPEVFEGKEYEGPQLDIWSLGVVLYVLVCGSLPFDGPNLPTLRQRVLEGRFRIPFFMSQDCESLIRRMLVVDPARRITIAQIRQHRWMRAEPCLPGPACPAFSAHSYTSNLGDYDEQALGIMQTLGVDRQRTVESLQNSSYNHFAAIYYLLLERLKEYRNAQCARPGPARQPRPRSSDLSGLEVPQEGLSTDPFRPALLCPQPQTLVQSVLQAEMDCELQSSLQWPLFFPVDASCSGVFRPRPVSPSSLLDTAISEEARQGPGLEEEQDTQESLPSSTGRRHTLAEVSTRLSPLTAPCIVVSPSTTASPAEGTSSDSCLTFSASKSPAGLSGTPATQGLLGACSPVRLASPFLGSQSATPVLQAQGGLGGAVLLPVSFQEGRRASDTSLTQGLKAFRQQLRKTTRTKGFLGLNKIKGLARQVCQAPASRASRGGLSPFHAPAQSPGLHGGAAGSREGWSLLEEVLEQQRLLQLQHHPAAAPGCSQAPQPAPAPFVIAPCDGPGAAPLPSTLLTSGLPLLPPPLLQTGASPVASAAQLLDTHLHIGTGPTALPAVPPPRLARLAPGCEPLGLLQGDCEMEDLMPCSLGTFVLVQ
Sequence of Hepatocyte growth factor receptor (Homo sapiens) (P08581 whole entry, the tested form may be a part): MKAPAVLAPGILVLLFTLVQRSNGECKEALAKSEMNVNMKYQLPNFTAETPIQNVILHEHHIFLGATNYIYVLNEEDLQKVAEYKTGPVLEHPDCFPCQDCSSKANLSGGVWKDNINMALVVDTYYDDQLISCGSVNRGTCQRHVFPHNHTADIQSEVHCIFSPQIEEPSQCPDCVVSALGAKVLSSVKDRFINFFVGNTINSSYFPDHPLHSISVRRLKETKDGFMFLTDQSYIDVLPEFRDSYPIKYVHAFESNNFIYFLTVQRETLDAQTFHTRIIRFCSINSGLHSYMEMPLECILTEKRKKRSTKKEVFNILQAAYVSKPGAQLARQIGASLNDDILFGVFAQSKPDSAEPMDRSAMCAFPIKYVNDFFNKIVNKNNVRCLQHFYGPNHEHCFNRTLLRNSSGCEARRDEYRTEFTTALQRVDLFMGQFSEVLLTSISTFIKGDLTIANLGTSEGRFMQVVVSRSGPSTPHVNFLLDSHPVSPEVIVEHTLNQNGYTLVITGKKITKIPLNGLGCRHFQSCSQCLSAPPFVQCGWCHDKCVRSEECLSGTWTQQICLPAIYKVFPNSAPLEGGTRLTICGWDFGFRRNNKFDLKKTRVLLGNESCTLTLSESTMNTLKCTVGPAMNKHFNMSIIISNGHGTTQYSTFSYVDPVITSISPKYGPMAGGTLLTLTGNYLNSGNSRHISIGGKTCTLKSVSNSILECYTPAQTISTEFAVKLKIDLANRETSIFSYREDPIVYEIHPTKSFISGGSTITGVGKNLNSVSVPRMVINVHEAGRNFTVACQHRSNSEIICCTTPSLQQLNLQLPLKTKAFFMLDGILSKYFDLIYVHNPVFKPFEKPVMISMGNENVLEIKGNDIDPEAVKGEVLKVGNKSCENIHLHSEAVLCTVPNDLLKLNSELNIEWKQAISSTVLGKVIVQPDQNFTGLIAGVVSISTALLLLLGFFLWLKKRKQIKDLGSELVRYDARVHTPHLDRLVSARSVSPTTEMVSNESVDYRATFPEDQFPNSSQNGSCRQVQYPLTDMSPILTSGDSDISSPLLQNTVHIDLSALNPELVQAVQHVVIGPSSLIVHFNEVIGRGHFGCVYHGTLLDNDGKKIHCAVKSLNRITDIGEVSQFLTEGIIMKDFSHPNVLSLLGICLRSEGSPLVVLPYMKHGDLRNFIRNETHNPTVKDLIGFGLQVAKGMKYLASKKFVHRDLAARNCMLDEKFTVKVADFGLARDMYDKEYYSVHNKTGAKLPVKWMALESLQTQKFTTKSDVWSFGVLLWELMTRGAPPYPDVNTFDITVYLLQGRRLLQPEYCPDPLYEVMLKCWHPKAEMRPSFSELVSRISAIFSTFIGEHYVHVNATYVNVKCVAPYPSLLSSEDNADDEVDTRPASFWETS
Sequence of AP2-associated protein kinase 1 (Homo sapiens) (Q2M2I8 whole entry, looked up, the tested form may be a part): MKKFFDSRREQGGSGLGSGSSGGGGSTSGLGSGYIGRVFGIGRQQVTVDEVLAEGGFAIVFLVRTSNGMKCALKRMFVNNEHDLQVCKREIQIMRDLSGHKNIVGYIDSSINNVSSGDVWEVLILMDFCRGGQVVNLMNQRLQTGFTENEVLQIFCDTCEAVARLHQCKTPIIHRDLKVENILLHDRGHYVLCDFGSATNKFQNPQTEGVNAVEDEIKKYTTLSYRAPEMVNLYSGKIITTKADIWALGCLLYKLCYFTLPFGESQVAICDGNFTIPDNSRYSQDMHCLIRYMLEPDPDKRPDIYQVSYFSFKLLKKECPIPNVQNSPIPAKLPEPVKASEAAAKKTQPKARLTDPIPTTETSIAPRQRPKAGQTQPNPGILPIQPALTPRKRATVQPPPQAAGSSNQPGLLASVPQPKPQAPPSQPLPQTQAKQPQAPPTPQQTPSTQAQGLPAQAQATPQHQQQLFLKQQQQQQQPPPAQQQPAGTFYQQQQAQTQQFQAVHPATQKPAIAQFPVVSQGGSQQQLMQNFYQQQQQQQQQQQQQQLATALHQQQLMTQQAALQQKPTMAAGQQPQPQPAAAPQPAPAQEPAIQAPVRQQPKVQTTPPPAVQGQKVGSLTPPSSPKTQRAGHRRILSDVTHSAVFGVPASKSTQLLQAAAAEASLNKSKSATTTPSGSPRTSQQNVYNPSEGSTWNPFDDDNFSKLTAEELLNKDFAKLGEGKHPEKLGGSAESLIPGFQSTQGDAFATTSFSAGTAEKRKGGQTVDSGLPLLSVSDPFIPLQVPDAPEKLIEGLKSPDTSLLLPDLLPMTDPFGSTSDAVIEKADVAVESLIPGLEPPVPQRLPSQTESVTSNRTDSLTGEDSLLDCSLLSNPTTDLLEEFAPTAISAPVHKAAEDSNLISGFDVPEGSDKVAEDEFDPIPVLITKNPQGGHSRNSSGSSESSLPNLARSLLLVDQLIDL
Sequence of Phosphorylase b kinase gamma catalytic chain, skeletal muscle/heart isoform (Homo sapiens) (Q16816 whole entry, looked up, the tested form may be a part, canonical isoform): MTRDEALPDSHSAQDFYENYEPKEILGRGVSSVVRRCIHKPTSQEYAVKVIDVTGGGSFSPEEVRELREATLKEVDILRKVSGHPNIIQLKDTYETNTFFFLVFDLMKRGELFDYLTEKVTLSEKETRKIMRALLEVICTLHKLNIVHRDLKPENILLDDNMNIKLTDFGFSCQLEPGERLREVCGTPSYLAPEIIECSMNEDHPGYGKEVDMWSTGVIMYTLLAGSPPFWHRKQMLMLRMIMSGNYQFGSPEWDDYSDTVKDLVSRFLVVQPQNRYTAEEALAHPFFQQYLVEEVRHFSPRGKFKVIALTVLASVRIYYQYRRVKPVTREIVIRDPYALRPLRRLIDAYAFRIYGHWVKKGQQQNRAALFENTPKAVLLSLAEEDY

With `CC(C)N1C(=O)C(NCCCN(C)C)=C(c2cn(C)c3ccccc23)C1=O.Cl` the Activity [1] was 64%, the Activity [2] was 100% and the Activity [3] was 88%. For the same molecule, the Activity [4] was 96%, the Activity [5] was 100% and the Activity [6] was 94%. It also gave an Activity [7] of 93%, an Activity [8] of 100% and an Activity [9] of 84%. For the same molecule, the Activity [10] was 92%, the Activity [11] was 87% and the Activity [12] was 90%. It also gave an Activity [13] of 97%, an Activity [14] of 89% and an Activity [15] of 80%. The Activity [16] was 95%, the Activity [17] was 80% and the Activity [18] was 84%. The Activity [19] was 100%, the Activity [20] was 100% and the Activity [21] was 100%. It also gave an Activity [22] of 95%, an Activity [23] of 94% and an Activity [24] of 86%.
